Where “and” joins values, the source holds several entries; their conditions need not be identical. Equal values may be shown once. Read-outs that look alike come from different tables or passages of the source. Marks after values point to notes of the source that are not given here. Blank lines part the entries; values can stand above or below the molecule they belong to.
Key:
[1] = tested on: S. aureus ATCC 29213; assay: MIC, broth microdilution; type: cell-based, Staphylococcus aureus; conditions: Staphylococcus aureus
Summary of the method: (§1)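 Inocula are prepared at 0.5 McFarland in saline buffer from colonies grown overnight on 5% bovine blood agar, then diluted so wells hold 5 × 10^5 CFU/mL. Staphylococcal plates use CaMH; enterococcal plates use BHI. Incubation runs overnight in air at 37 °C.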

[2] = tested on: methicillin-resistant S. aureus SA 3202; assay: MIC, broth microdilution; type: cell-based, Staphylococcus aureus; conditions: Staphylococcus aureus, read-out: MICs
Summary of the method: as §1

[3] = tested on: MRSA SA 3202; assay: synergy with antibiotics (FIC index, checkerboard); type: cell-based, Staphylococcus aureus; conditions: in the combination of that line
Excerpt: (§2) Representatives from various classes were chosen in order to study the potential difference in synergistic activity according to the diverse mechanisms of action and resistance of these drugs. The method of minimal fractional inhibitory concentration (FIC) index (FICI) in a microtitration plate was used. FICI ≤ 0.5 means synergy; 0.5 < FICI < 1 means additivity; 1 ≤ FICI < 4 means indifference; and FICI ≥ 4 means antagonism.
(§3) For synergy effect study, a method of fractional inhibitory concentration was used. […] Raw H was used for the evaluation of MIC(A); column 12 was used for evaluation of MIC(B). The plate was inoculated by the bacterial suspension to reach final concentration of 5 × 10^5 CFU/mL in the wells. The fractional inhibitory concentration (FIC) index was calculated using the concentrations in the first nonturbid (clear) well found in each row and column along the turbidity/nonturbidity interface. To interpret the combined effect, the lowest FICI was used. A ΣFIC ≤ 0.5 means synergy; 0.5 < ΣFIC < 1 means additivity; 1 ≤ ΣFIC < 4 means indifference; and ΣFIC ≥ 4 means antagonism. The tests were made in duplicate, and the results were averaged.

[4] = tested on: VRE 725B; assay: synergy with antibiotics (FIC index, checkerboard); type: cell-based, Enterococcus faecalis; conditions: combination with VAN, data not shown
Excerpt: as §2
The used VRE strains were isolated from American crows by Oravcova et al., and their genetic profiles were characterized. All the VRE strains were carrying genes vanA, tetM, and ermB. Strains VRE 368 and VRE 725B carried gene aac, which provided acquired aminoglycoside resistance.
as §3

[5] = tested on: E. faecalis ATCC 29212; assay: time-kill study; type: cell-based, Enterococcus faecalis; conditions: EF
Excerpt: (§4) Time-kill studies are used to evaluate the dynamics of antibacterial activity. As mentioned above, a pre-test to determine minimum bactericidal concentration (MBC) by sub-cultivation of aliquots on agar was made (see Section 3.4). […] Time-kill studies were made with methicillin-susceptible S. aureus ATCC 29213 and methicillin-resistant MRSA 63718, vancomycin-susceptible E. faecalis ATCC 29212, and all three VRE isolates. Vancomycin was used as a control (Table 6).
(§5) The method of time-kill curves was used to study the bactericidal effect of selected compounds. […] The experiment was performed with S. aureus ATCC 29213, MRSA 63718, E. faecalis ATCC 29212, and all VRE isolates. […] The tubes were inoculated by bacterial inoculum in the exponential phase of growth to get a final concentration of 7.5 × 10^6 CFU/mL. The tubes were incubated statically at 37 °C. Immediately after inoculation and after 4, 6, 8, and 24 h, 100 µL of the sample was serially diluted (1:10) in PBS. Then, 2 × 20 µL from each dilution were put onto a Mueller–Hinton agar plate and cultivated at 37 °C for 24 h. After incubation, CFUs of dilutions containing 5–50 colonies were counted. Results were expressed as a decrease of log10(CFU) in each time compared to the starting inoculum. Bactericidal effect is defined as a −3log decrease of CFU/mL compared to the growth control in time 0. The test was made in duplicate on two separate occasions, and the results were averaged. The growth curves with error bars are shown in Figures S1 and S2 in Supplementary Materials.

[6] = tested on: VRE 342B; assay: time-kill study; type: cell-based, Enterococcus faecalis; conditions: VRE1
Excerpt: as §4, §5

[7] = tested on: VRE 368; assay: time-kill study; type: cell-based, Enterococcus faecalis; conditions: VRE2
Excerpt: as §4, §5

[8] = tested on: VRE 725B; assay: time-kill study; type: cell-based, Enterococcus faecalis; conditions: VRE3
Excerpt: as §4, §5

[9] = ATCC29213, SA = S. aureus ATCC 29213, read-out: MICs
[10] = ATCC29213, Table 7, planktonic cells of S. aureus ATCC 29213, read-out: MIC

MIC [1, 9]: 16 µg/mL and 31.6 µM
MIC [1, 10]: 16 µg/mL
MIC ([2]; MRSA3 = SA 3202): 16 µg/mL and 31.6 µM
SMILES: CCCCCOc1cccc(NC(=O)OC(CN(CCC)CCC)CN2CCCC2)c1.Cl.Cl (stereo not shown) [1f, 1-[3-(dipropylammonio)-2-({[3-(pentyloxy)phenyl]carbamoyl}-oxy)propyl]pyrrolidinium dichloride]

MIC [1, 9]: 8 µg/mL and 15 µM
MIC [1, 10]: 8 µg/mL
MIC ([2]; MRSA3 = SA 3202): 8 µg/mL and 15 µM
SMILES: CCCCCCCOc1cccc(NC(=O)OC(CN(CCC)CCC)CN2CCCC2)c1.Cl.Cl (stereo not shown) [1h, 1-[3-(Dipropylammonio)-2-({[3-(heptyloxy)phenyl]carbamoyl}oxy)propyl]pyrrolidinium dichloride]
concentrations of the tested compound/clinically used antibiotic providing additivity or synergy [3]: 4 µg/mL
effect of the combination with VAN [4]: indifferent effect
Log10 Difference in CFU/mL from Inoculum ([5]; 1 × MIC, 4 h): −0.64 log10 CFU/mL
Log10 Difference in CFU/mL from Inoculum ([5]; 1 × MIC, 6 h): 0.16 log10 CFU/mL
Log10 Difference in CFU/mL from Inoculum ([5]; 1 × MIC, 8 h): 0.24 log10 CFU/mL
Log10 Difference in CFU/mL from Inoculum ([5]; 1 × MIC, 24 h): 0.34 log10 CFU/mL
Log10 Difference in CFU/mL from Inoculum ([5]; 2 × MIC, 4 h): −1.87 log10 CFU/mL
Log10 Difference in CFU/mL from Inoculum ([5]; 2 × MIC, 6 h): −1.36 log10 CFU/mL
Log10 Difference in CFU/mL from Inoculum ([5]; 2 × MIC, 8 h): −0.86 log10 CFU/mL
Log10 Difference in CFU/mL from Inoculum ([5]; 2 × MIC, 24 h): 0.42 log10 CFU/mL
Log10 Difference in CFU/mL from Inoculum ([5]; 4 × MIC, 4 h): −2.57 * log10 CFU/mL
Log10 Difference in CFU/mL from Inoculum ([5]; 4 × MIC, 6 h): −2.23 * log10 CFU/mL
Log10 Difference in CFU/mL from Inoculum ([5]; 4 × MIC, 8 h): −1.62 log10 CFU/mL
Log10 Difference in CFU/mL from Inoculum ([5]; 4 × MIC, 24 h): 0.49 log10 CFU/mL
Log10 Difference in CFU/mL from Inoculum ([6]; 1 × MIC, 4 h): 0.07 log10 CFU/mL
Log10 Difference in CFU/mL from Inoculum ([6]; 1 × MIC, 6 h): 1.08 log10 CFU/mL
Log10 Difference in CFU/mL from Inoculum ([6]; 1 × MIC, 8 h): −0.08 log10 CFU/mL
Log10 Difference in CFU/mL from Inoculum ([6]; 1 × MIC, 24 h): 1.42 log10 CFU/mL
Log10 Difference in CFU/mL from Inoculum ([6]; 2 × MIC, 4 h): 0.09 log10 CFU/mL
Log10 Difference in CFU/mL from Inoculum ([6]; 2 × MIC, 6 h): 0.41 log10 CFU/mL
Log10 Difference in CFU/mL from Inoculum ([6]; 2 × MIC, 8 h): −0.02 log10 CFU/mL
Log10 Difference in CFU/mL from Inoculum ([6]; 2 × MIC, 24 h): 0.47 log10 CFU/mL
Log10 Difference in CFU/mL from Inoculum ([6]; 4 × MIC, 4 h): −0.78 log10 CFU/mL
Log10 Difference in CFU/mL from Inoculum ([6]; 4 × MIC, 6 h): −0.99 log10 CFU/mL
Log10 Difference in CFU/mL from Inoculum ([6]; 4 × MIC, 8 h): −0.66 log10 CFU/mL
Log10 Difference in CFU/mL from Inoculum ([6]; 4 × MIC, 24 h): 0.85 log10 CFU/mL
Log10 Difference in CFU/mL from Inoculum ([7]; 1 × MIC, 4 h): 0.46 log10 CFU/mL
Log10 Difference in CFU/mL from Inoculum ([7]; 1 × MIC, 6 h): 0.71 log10 CFU/mL
Log10 Difference in CFU/mL from Inoculum ([7]; 1 × MIC, 8 h): 1.25 log10 CFU/mL
Log10 Difference in CFU/mL from Inoculum ([7]; 1 × MIC, 24 h): 1.13 log10 CFU/mL
Log10 Difference in CFU/mL from Inoculum ([7]; 2 × MIC, 4 h): 0.28 log10 CFU/mL
Log10 Difference in CFU/mL from Inoculum ([7]; 2 × MIC, 6 h): 0.54 log10 CFU/mL
Log10 Difference in CFU/mL from Inoculum ([7]; 2 × MIC, 8 h): −0.37 log10 CFU/mL
Log10 Difference in CFU/mL from Inoculum ([7]; 2 × MIC, 24 h): 0.66 log10 CFU/mL
Log10 Difference in CFU/mL from Inoculum ([7]; 4 × MIC, 4 h): −0.32 log10 CFU/mL
Log10 Difference in CFU/mL from Inoculum ([7]; 4 × MIC, 6 h): 0.05 log10 CFU/mL
Log10 Difference in CFU/mL from Inoculum ([7]; 4 × MIC, 8 h): 0.22 log10 CFU/mL
Log10 Difference in CFU/mL from Inoculum ([7]; 4 × MIC, 24 h): 0.37 log10 CFU/mL
Log10 Difference in CFU/mL from Inoculum ([8]; 1 × MIC, 4 h): −0.70 log10 CFU/mL
Log10 Difference in CFU/mL from Inoculum ([8]; 1 × MIC, 6 h): 0.08 log10 CFU/mL
Log10 Difference in CFU/mL from Inoculum ([8]; 1 × MIC, 8 h): −0.05 log10 CFU/mL
Log10 Difference in CFU/mL from Inoculum ([8]; 1 × MIC, 24 h): 0.92 log10 CFU/mL
Log10 Difference in CFU/mL from Inoculum ([8]; 2 × MIC, 4 h): −1.81 log10 CFU/mL
Log10 Difference in CFU/mL from Inoculum ([8]; 2 × MIC, 6 h): −1.31 log10 CFU/mL
Log10 Difference in CFU/mL from Inoculum ([8]; 2 × MIC, 8 h): −0.81 log10 CFU/mL
Log10 Difference in CFU/mL from Inoculum ([8]; 2 × MIC, 24 h): 0.95 log10 CFU/mL
Log10 Difference in CFU/mL from Inoculum ([8]; 4 × MIC, 4 h): −1.75 * log10 CFU/mL
Log10 Difference in CFU/mL from Inoculum ([8]; 4 × MIC, 6 h): −0.76 log10 CFU/mL
Log10 Difference in CFU/mL from Inoculum ([8]; 4 × MIC, 8 h): −0.76 log10 CFU/mL
Log10 Difference in CFU/mL from Inoculum ([8]; 4 × MIC, 24 h): 1.08 log10 CFU/mL

SMILES: CN[C@H](CC(C)C)C(=O)N[C@H]1C(=O)N[C@@H](CC(N)=O)C(=O)N[C@H]2C(=O)N[C@H]3C(=O)N[C@H](C(=O)N[C@H](C(=O)O)c4cc(O)cc(O)c4-c4cc3ccc4O)[C@H](O)c3ccc(c(Cl)c3)Oc3cc2cc(c3O[C@@H]2O[C@H](CO)[C@@H](O)[C@H](O)[C@H]2O[C@H]2C[C@](C)(N)[C@H](O)[C@H](C)O2)Oc2ccc(cc2Cl)[C@H]1O [VAN, vancomycin, reference compound]
MIC ([1]; ATCC29213, read-out: MICs): 1 µg/mL and 0.69 µM
MIC [2]: 1 µg/mL and 0.69 µM

From PMC7168207, “Dibasic Derivatives of Phenylcarbamic Acid as Prospective Antibacterial Agents Interacting with Cytoplasmic Membrane” (Antibiotics, 2020)
